Source: the supplement of paper PMC11208160

assay: recombinant UMI read abundance after kanamycin selection (control-corrected) (log10(CPM+1)); higher = more efficient recombination; extreme values may be limits of the assay; sequences stand for … in AGTGCAGAGAAAATCGGCCAGTTTTCTCTGCCTGCAGTCCGCATGCCGTGGGACCCCTTGGGTTCTAACCTGTTGCCTAGATTTATGCAGCGGACTGCCTTTCTCCCAAAGTGATAAACCGG…AGGTTGGTTTCACT; site = the 11-nt donor
Outline: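 In a pooled Escherichia coli screen for the IS621 bridge recombinase, donor and donor-binding-loop pairs were each placed with a 12-nt UMI on a plasmid bearing a promoterless kanamycin gene. This library was co-electroporated with a target plasmid encoding a fixed target and T7-inducible recombinase, and cells were plated either on IPTG (0.07 mM) plus kanamycin or without selection, in two replicates each. Recombinant UMIs were PCR-amplified across the donor–target junction and sequenced, and counts were converted to CPM, averaged over replicates, scaled by control-derived factors and reported as log10(CPM+1).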
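Further: IS621 bridge recombinase in Escherichia coli cells against a fixed T5 target plasmid.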

Compared with “ATTGAGACATGGACCGGTTTTCCCGGTAATCCGTATTTGGC (site ATTGAGACTCC)”, “ATTGAGACATGGACCGGTTTTCCCGGTAATCCGTATTTGGC (site ATTGAGACTGC)” is higher in “recombinant UMI read abundance (log10)” value: 0.38 for the first, 1.83 for the second.

Going from “ATTGAGACATGGACCGGTTTTCCCGGTAATCCGTATTTGGC (site ATTGAGACTTC)” to “ATTGAGACATGGACCGGTTTTCCCGGTAATCCGTATTTGTT (site ATTGAGACTAA)”, the “recombinant UMI read abundance (log10)” value rises from 0.679 to 1.71.

Compared with “ATTGAGACATGGACCGGTTTTCCCGGTAATCCGTATTTGTT (site ATTGAGACTAC)”, “ATTGAGACATGGACCGGTTTTCCCGGTAATCCGTATTTGTT (site ATTGAGACTAG)” is higher in “recombinant UMI read abundance (log10)” value: 0.013 for the first, 2.02 for the second.

First: ATTGAGACATGGACCGGTTTTCCCGGTAATCCGTATTTGTT (site ATTGAGACTAT)
Second: ATTGAGCCATGGACCGGTTTTCCCGGTAATCCGTATTTGGT (site ATTGAGACTAC)
The “recombinant UMI read abundance (log10)” value of the first is higher: 0.811 for the first, 0.00491 for the second.

“ATTGAGCCATGGACCGGTTTTCCCGGTAATCCGTATTTGGT (site ATTGAGCCTAC)” and “ATTGAGCCATGGACCGGTTTTCCCGGTAATCCGTATTTGGT (site ATTGAGGCTAC)” are within 0.2 log units of each other in “recombinant UMI read abundance (log10)” value: 0.00384 for the first, 0.0212 for the second.

Going from “ATTGAGCCATGGACCGGTTTTCCCGGTAATCCGTATTTGGT (site ATTGAGTCTAC)” to “ATTGAGGCATGGACCGGTTTTCCCGGTAATCCGTATTTGGT (site ATTGAGACTAC)”, the “recombinant UMI read abundance (log10)” value falls from 0.633 to 0.413.

First: ATTGAGGCATGGACCGGTTTTCCCGGTAATCCGTATTTGGT (site ATTGAGCCTAC)
Second: ATTGAGGCATGGACCGGTTTTCCCGGTAATCCGTATTTGGT (site ATTGAGGCTAC)
The “recombinant UMI read abundance (log10)” value of the first is lower: 0.486 for the first, 0.927 for the second.

Compared with “ATTGAGGCATGGACCGGTTTTCCCGGTAATCCGTATTTGGT (site ATTGAGTCTAC)”, “ATTGCAGCATGGACCGGTTTTCCCGGTAATCCGTATTTGAG (site ATTGCAGCTCT)” is higher in “recombinant UMI read abundance (log10)” value: 0.801 for the first, 1.03 for the second.

First: ATTGCCGCATGGACCGGTTTTCCCGGTAATCCGTATTTGTC (site ATTGCCGCTGA)
Second: ATTGCCTCATGGACCGGTTTTCCCGGTAATCCGTATTTGCT (site ATTGCCTCTAG)
The “recombinant UMI read abundance (log10)” value of the first is lower: 0.656 for the first, 2.03 for the second.

First: ATTGCGACATGGACCGGTTTTCCCGGTAATCCGTATTTGGT (site ATTGAGACTAC)
Second: ATTGCGACATGGACCGGTTTTCCCGGTAATCCGTATTTGGT (site ATTGCGACTAC)
The “recombinant UMI read abundance (log10)” value of the first is lower: 0.0594 for the first, 0.639 for the second.

Going from “ATTGCGACATGGACCGGTTTTCCCGGTAATCCGTATTTGGT (site ATTGGGACTAC)” to “ATTGCGACATGGACCGGTTTTCCCGGTAATCCGTATTTGGT (site ATTGTGACTAC)”, the “recombinant UMI read abundance (log10)” value falls from 0.456 to 0.225.

Compared with “ATTGGGACATGGACCGGTTTTCCCGGTAATCCGTATTTGGT (site ATTGAGACTAC)”, “ATTGGGACATGGACCGGTTTTCCCGGTAATCCGTATTTGGT (site ATTGCGACTAC)” is lower in “recombinant UMI read abundance (log10)” value: 0.413 for the first, 0.021 for the second.

Going from “ATTGGGACATGGACCGGTTTTCCCGGTAATCCGTATTTGGT (site ATTGGGACTAC)” to “ATTGGGACATGGACCGGTTTTCCCGGTAATCCGTATTTGGT (site ATTGTGACTAC)”, the “recombinant UMI read abundance (log10)” value falls from 0.896 to 0.0209.

“ATTGTGCCATGGACCGGTTTTCCCGGTAATCCGTATTTGAC (site ATTGTGCCTGT)” and “ATTGTGCCATGGACCGGTTTTCCCGGTAATCCGTATTTGCA (site ATTGTGCCTTG)” are within 0.2 log units of each other in “recombinant UMI read abundance (log10)” value: 0.819 for the first, 0.682 for the second.

“ATTGTGCCATGGACCGGTTTTCCCGGTAATCCGTATTTGTG (site ATTGTGCCTCA)” and “ATTGTGTCATGGACCGGTTTTCCCGGTAATCCGTATTTGAC (site AATGTGTCTGT)” are within 0.2 log units of each other in “recombinant UMI read abundance (log10)” value: 0.054 for the first, 0 for the second.

Compared with “ATTGTGTCATGGACCGGTTTTCCCGGTAATCCGTATTTGAC (site ACTGTGTCTGT)”, “ATTGTGTCATGGACCGGTTTTCCCGGTAATCCGTATTTGAC (site AGTGTGTCTGT)” is lower in “recombinant UMI read abundance (log10)” value: 1.41 for the first, 0 for the second.

Compared with “ATTGTGTCATGGACCGGTTTTCCCGGTAATCCGTATTTGAC (site ATTGTGTCTGT)”, “ATTGTTACATGGACCGGTTTTCCCGGTAATCCGTATTTGTG (site ATTGTTACTCA)” is lower in “recombinant UMI read abundance (log10)” value: 1.6 for the first, 0.634 for the second.

Going from “ATTTATACATGGACCGGTTTTCCCGGTAATCCGTATTTGAC (site ATATATACTGT)” to “ATTTATACATGGACCGGTTTTCCCGGTAATCCGTATTTGAC (site ATCTATACTGT)”, the “recombinant UMI read abundance (log10)” value rises from 0.718 to 1.22.

Going from “ATTTATACATGGACCGGTTTTCCCGGTAATCCGTATTTGAC (site ATGTATACTGT)” to “ATTTATACATGGACCGGTTTTCCCGGTAATCCGTATTTGAC (site ATTTATACTGT)”, the “recombinant UMI read abundance (log10)” value falls from 1.21 to 0.544.

Compared with “ATTTCTCCATGGACCGGTTTTCCCGGTAATCCGTATTTGAC (site ATTTCTCCTGT)”, “CAAAATGCATGGACCGGTTTTCCCGGTAATCCGTATTTGAC (site CAAAATGCTGT)” is higher in “recombinant UMI read abundance (log10)” value: 0 for the first, 2.14 for the second.

First: CAAACATCATGGACCGGTTTTCCCGGTAATCCGTATTTGCT (site CAAACATCTAG)
Second: CAAACATCATGGACCGGTTTTCCCGGTAATCCGTATTTGCT (site CGATCATCTAG)
The “recombinant UMI read abundance (log10)” value of the first is higher: 1.94 for the first, 0 for the second.

Compared with “CAAACGCCATGGACCGGTTTTCCCGGTAATCCGTATTTGTG (site CAAACGCCTCA)”, “CAAACGCCATGGACCGGTTTTCCCGGTAATCCGTATTTGTG (site CAACCGCCTCA)” is lower in “recombinant UMI read abundance (log10)” value: 0.56 for the first, 0.033 for the second.

“CAAACGCCATGGACCGGTTTTCCCGGTAATCCGTATTTGTG (site CAAGCGCCTCA)” and “CAAACGCCATGGACCGGTTTTCCCGGTAATCCGTATTTGTG (site CAATCGCCTCA)” are within 0.2 log units of each other in “recombinant UMI read abundance (log10)” value: 0.0253 for the first, 0.0256 for the second.

Going from “CAAATAACATGGACCGGTTTTCCCGGTAATCCGTATTTGCA (site CAAATAACTTG)” to “CAAATCCCATGGACCGGTTTTCCCGGTAATCCGTATTTGCT (site CAAATCCCTAG)”, the “recombinant UMI read abundance (log10)” value falls from 1.1 to 0.

“CAAATCCCATGGACCGGTTTTCCCGGTAATCCGTATTTGCT (site CAACTCCCTAG)” and “CAAATCCCATGGACCGGTTTTCCCGGTAATCCGTATTTGCT (site CAAGTCCCTAG)” are within 0.2 log units of each other in “recombinant UMI read abundance (log10)” value: 0.00602 for the first, 0 for the second.

Compared with “CAAATCCCATGGACCGGTTTTCCCGGTAATCCGTATTTGCT (site CAATTCCCTAG)”, “CAAATGGCATGGACCGGTTTTCCCGGTAATCCGTATTTGCA (site CAAATGGCTTG)” is higher in “recombinant UMI read abundance (log10)” value: 0 for the first, 2.04 for the second.

Going from “CAACAACCATGGACCGGTTTTCCCGGTAATCCGTATTTGTC (site CAACAACCTGA)” to “CAACAGGCATGGACCGGTTTTCCCGGTAATCCGTATTTGTA (site CAACAGGCTTA)”, the “recombinant UMI read abundance (log10)” value rises from 0.474 to 1.18.

First: CAACATACATGGACCGGTTTTCCCGGTAATCCGTATTTGTG (site CAACATACTCA)
Second: CAACCGCCATGGACCGGTTTTCCCGGTAATCCGTATTTGTG (site CAAACGCCTCA)
The “recombinant UMI read abundance (log10)” value of the first is higher: 1.83 for the first, 0.00379 for the second.

“CAACCGCCATGGACCGGTTTTCCCGGTAATCCGTATTTGTG (site CAACCGCCTCA)” and “CAACCGCCATGGACCGGTTTTCCCGGTAATCCGTATTTGTG (site CAAGCGCCTCA)” are within 0.2 log units of each other in “recombinant UMI read abundance (log10)” value: 0.00924 for the first, 0.0348 for the second.

Going from “CAACCGCCATGGACCGGTTTTCCCGGTAATCCGTATTTGTG (site CAATCGCCTCA)” to “CAACGCACATGGACCGGTTTTCCCGGTAATCCGTATTTGTT (site CAACGCACTAA)”, the “recombinant UMI read abundance (log10)” value rises from 0.0138 to 1.62.

Going from “CAAGAGCCATGGACCGGTTTTCCCGGTAATCCGTATTTGTG (site CAAGAGCCTCA)” to “CAAGAGCCATGGACCGGTTTTCCCGGTAATCCGTATTTGTG (site CAAGCGCCTCA)”, the “recombinant UMI read abundance (log10)” value falls from 1.28 to 0.0351.

Going from “CAAGAGCCATGGACCGGTTTTCCCGGTAATCCGTATTTGTG (site CAAGGGCCTCA)” to “CAAGAGCCATGGACCGGTTTTCCCGGTAATCCGTATTTGTG (site CAAGTGCCTCA)”, the “recombinant UMI read abundance (log10)” value falls from 0.55 to 0.0217.

Going from “CAAGCAACATGGACCGGTTTTCCCGGTAATCCGTATTTGCT (site CAAGCAACTAG)” to “CAAGCAACATGGACCGGTTTTCCCGGTAATCCGTATTTGCT (site CAAGCACCTAG)”, the “recombinant UMI read abundance (log10)” value falls from 1.57 to 0.

First: CAAGCAACATGGACCGGTTTTCCCGGTAATCCGTATTTGCT (site CAAGCAGCTAG)
Second: CAAGCAACATGGACCGGTTTTCCCGGTAATCCGTATTTGCT (site CAAGCATCTAG)
The “recombinant UMI read abundance (log10)” value of the first is lower: 0 for the first, 0.289 for the second.

Going from “CAAGCCACATGGACCGGTTTTCCCGGTAATCCGTATTTGGG (site CAAGACACTCC)” to “CAAGCCACATGGACCGGTTTTCCCGGTAATCCGTATTTGGG (site CAAGCCACTCC)”, the “recombinant UMI read abundance (log10)” value rises from 0.0254 to 0.408.

“CAAGCCACATGGACCGGTTTTCCCGGTAATCCGTATTTGGG (site CAAGGCACTCC)” and “CAAGCCACATGGACCGGTTTTCCCGGTAATCCGTATTTGGG (site CAAGTCACTCC)” are within 0.2 log units of each other in “recombinant UMI read abundance (log10)” value: 0.00628 for the first, 0.0106 for the second.

“CAAGCCCCATGGACCGGTTTTCCCGGTAATCCGTATTTGCT (site CAAGCCCCTAG)” and “CAAGCCGCATGGACCGGTTTTCCCGGTAATCCGTATTTGCT (site CAAGCAGCTAG)” are the same in “recombinant UMI read abundance (log10)” value: 2.06 for the first, 2.06 for the second.

In the case of “CAAGCCGCATGGACCGGTTTTCCCGGTAATCCGTATTTGCT (site CAAGCCGCTAG)”, the “recombinant UMI read abundance (log10)” value is reported as 2.56.
